Reference: publication PMC9621292, “Design and synthesis of some new benzoylthioureido benzenesulfonamide derivatives and their analogues as carbonic anhydrase inhibitors” (Journal of Enzyme Inhibition and Medicinal Chemistry, 2022)

Molecular target: hCA II (Homo sapiens, UniProt P00918)
Experiment: Stopped flow CO2 hydrase assay, hCA II
Conditions: not given

| SMILES | Ki [nM] |
| --- | --- |
| CC(C)C(=O)Nc1ccc(C(=O)NC(=S)Nc2ccc(S(N)(=O)=O)cc2)cc1 [Compound 7e, 4-Isobutyramido-N-((4-sulfamoylphenyl)carbamothioyl)benzamide] | 39.6 |
| CC(C)C(=O)Nc1cccc(C(=O)NC(=S)Nc2ccc(S(N)(=O)=O)cc2)c1 [Compound 7b, 3-Isobutyramido-N-((4-sulfamoylphenyl)carbamothioyl)benzamide] | 2.1 |
| CC(=O)Nc1cccc(C(=O)NC(=S)Nc2ccc(S(N)(=O)=O)cc2)c1 [Compound 7a, 3-Acetamido-N-((4-sulfamoylphenyl)carbamothioyl)benzamide] | 2.5 |

The next lines start with the values.

| Ki [nM] | SMILES |
| --- | --- |
| 430 | CC(C)C(=O)Nc1ccc(C(=O)NC(=S)Nc2ccc(C(=O)O)cc2)cc1 [Compound 8e, 4-(3-(4-Isobutyramidobenzoyl)thioureido)benzoic acid] |
| 5400 | CC(=O)Nc1cccc(C(=O)NC(=S)Nc2ccc(C(=O)O)cc2)c1 [Compound 8a, 4-(3-(3-Acetamidobenzoyl)thioureido)benzoic acid] |
| 855 | CC(=O)Nc1ccc(C(=O)NC(=S)Nc2ccc(C(=O)O)cc2)cc1 [Compound 8d, 4-(3-(4-Acetamidobenzoyl)thioureido)benzoic acid] |
| 73.2 | CCOC(=O)c1ccc(NC(=S)NC(=O)c2ccc(NC(=O)C(C)C)cc2)cc1 [Compound 9e, Ethyl 4–(3-(4-isobutyramidobenzoyl)thioureido)benzoate] |
| > 100000 | Cc1ccc(C(=O)Nc2ccc(C(=O)NC(=S)Nc3ccc(C(=O)O)cc3)cc2)cc1 [Compound 8f, 4-(3-(4–(4-Methylbenzamido)benzoyl)thioureido)benzoic acid] |
| > 100000 | CC(C)C(=O)Nc1cccc(C(=O)NC(=S)Nc2ccc(C(=O)O)cc2)c1 [Compound 8b, 4-(3-(3-Isobutyramidobenzoyl)thioureido)benzoic acid] |

System: not given
Experiment: not given
Conditions: not given

| SMILES | melting point [°C] |
| --- | --- |
| CC(C)C(=O)Nc1ccc(C(=O)NC(=S)Nc2ccc(S(N)(=O)=O)cc2)cc1 [Compound 7e, 4-Isobutyramido-N-((4-sulfamoylphenyl)carbamothioyl)benzamide] | 248 to 250 |
| CC(C)C(=O)Nc1cccc(C(=O)NC(=S)Nc2ccc(S(N)(=O)=O)cc2)c1 [Compound 7b, 3-Isobutyramido-N-((4-sulfamoylphenyl)carbamothioyl)benzamide] | 240 to 242 |
| CC(=O)Nc1cccc(C(=O)NC(=S)Nc2ccc(S(N)(=O)=O)cc2)c1 [Compound 7a, 3-Acetamido-N-((4-sulfamoylphenyl)carbamothioyl)benzamide] | 256 to 258 |

More lines, now with the values ahead:

| melting point [°C] | SMILES |
| --- | --- |
| 240 to 242 | CC(C)C(=O)Nc1ccc(C(=O)NC(=S)Nc2ccc(C(=O)O)cc2)cc1 [Compound 8e, 4-(3-(4-Isobutyramidobenzoyl)thioureido)benzoic acid] |
| 247 to 249 | CC(=O)Nc1cccc(C(=O)NC(=S)Nc2ccc(C(=O)O)cc2)c1 [Compound 8a, 4-(3-(3-Acetamidobenzoyl)thioureido)benzoic acid] |
| 245 to 247 | CC(=O)Nc1ccc(C(=O)NC(=S)Nc2ccc(C(=O)O)cc2)cc1 [Compound 8d, 4-(3-(4-Acetamidobenzoyl)thioureido)benzoic acid] |
| 245 to 247 | CCOC(=O)c1ccc(NC(=S)NC(=O)c2ccc(NC(=O)C(C)C)cc2)cc1 [Compound 9e, Ethyl 4–(3-(4-isobutyramidobenzoyl)thioureido)benzoate] |
| 254 to 256 | Cc1ccc(C(=O)Nc2ccc(C(=O)NC(=S)Nc3ccc(C(=O)O)cc3)cc2)cc1 [Compound 8f, 4-(3-(4–(4-Methylbenzamido)benzoyl)thioureido)benzoic acid] |
| 240 to 242 | CC(C)C(=O)Nc1cccc(C(=O)NC(=S)Nc2ccc(C(=O)O)cc2)c1 [Compound 8b, 4-(3-(3-Isobutyramidobenzoyl)thioureido)benzoic acid] |

Molecular target: CA IX
Experiment: not given
Conditions: compound A, printed in Figure 2; read-out: Ki hCA IX; cited from earlier work

| SMILES | Ki [nM] |
| --- | --- |
| NS(=O)(=O)c1ccc(NC(=S)NC(=O)c2ccc(Cl)cc2Cl)cc1 [Compound A] | 0.12 |

Same assay, conditions: reported for compound A; cited from earlier work

| SMILES | IC50 [nM] |
| --- | --- |
| NS(=O)(=O)c1ccc(NC(=S)NC(=O)c2ccc(Cl)cc2Cl)cc1 [Compound A] | 0.12 |

Molecular target: hCA IX (Homo sapiens, UniProt Q16790)
Experiment: Stopped flow CO2 hydrase assay, hCA IX
Conditions: not given

| SMILES | Ki [nM] |
| --- | --- |
| CC(C)C(=O)Nc1ccc(C(=O)NC(=S)Nc2ccc(S(N)(=O)=O)cc2)cc1 [Compound 7e, 4-Isobutyramido-N-((4-sulfamoylphenyl)carbamothioyl)benzamide] | 203 |
| CC(C)C(=O)Nc1cccc(C(=O)NC(=S)Nc2ccc(S(N)(=O)=O)cc2)c1 [Compound 7b, 3-Isobutyramido-N-((4-sulfamoylphenyl)carbamothioyl)benzamide] | 149 |
| CC(=O)Nc1cccc(C(=O)NC(=S)Nc2ccc(S(N)(=O)=O)cc2)c1 [Compound 7a, 3-Acetamido-N-((4-sulfamoylphenyl)carbamothioyl)benzamide] | 238 |

Further lines, results first:

| Ki [nM] | SMILES |
| --- | --- |
| 898 | CC(C)C(=O)Nc1ccc(C(=O)NC(=S)Nc2ccc(C(=O)O)cc2)cc1 [Compound 8e, 4-(3-(4-Isobutyramidobenzoyl)thioureido)benzoic acid] |
| 209 | CC(=O)Nc1cccc(C(=O)NC(=S)Nc2ccc(C(=O)O)cc2)c1 [Compound 8a, 4-(3-(3-Acetamidobenzoyl)thioureido)benzoic acid] |
| 971 | CC(=O)Nc1ccc(C(=O)NC(=S)Nc2ccc(C(=O)O)cc2)cc1 [Compound 8d, 4-(3-(4-Acetamidobenzoyl)thioureido)benzoic acid] |
| 29 | CCOC(=O)c1ccc(NC(=S)NC(=O)c2ccc(NC(=O)C(C)C)cc2)cc1 [Compound 9e, Ethyl 4–(3-(4-isobutyramidobenzoyl)thioureido)benzoate] |
| 176 | Cc1ccc(C(=O)Nc2ccc(C(=O)NC(=S)Nc3ccc(C(=O)O)cc3)cc2)cc1 [Compound 8f, 4-(3-(4–(4-Methylbenzamido)benzoyl)thioureido)benzoic acid] |
| 208 | CC(C)C(=O)Nc1cccc(C(=O)NC(=S)Nc2ccc(C(=O)O)cc2)c1 [Compound 8b, 4-(3-(3-Isobutyramidobenzoyl)thioureido)benzoic acid] |

Same assay, conditions: inhibition of hCA IX over hCA I, calculated from Ki

| Selectivity index I/IX | SMILES |
| --- | --- |
| 293 | CC(C)C(=O)Nc1ccc(C(=O)NC(=S)Nc2ccc(C(=O)O)cc2)cc1 [Compound 8e, 4-(3-(4-Isobutyramidobenzoyl)thioureido)benzoic acid] |
| 293 | CCOC(=O)c1ccc(NC(=S)NC(=O)c2ccc(NC(=O)C(C)C)cc2)cc1 [Compound 9e, Ethyl 4–(3-(4-isobutyramidobenzoyl)thioureido)benzoate] |

Same assay, conditions: inhibition of hCA IX over hCA II, calculated from Ki

| Selectivity index II/IX | SMILES |
| --- | --- |
| 2.5 | CCOC(=O)c1ccc(NC(=S)NC(=O)c2ccc(NC(=O)C(C)C)cc2)cc1 [Compound 9e, Ethyl 4–(3-(4-isobutyramidobenzoyl)thioureido)benzoate] |

Molecular target: hCA I (Homo sapiens, UniProt P00915)
Experiment: Stopped flow CO2 hydrase assay, hCA I
Conditions: not given

hCA I, sequence (P00915 whole entry): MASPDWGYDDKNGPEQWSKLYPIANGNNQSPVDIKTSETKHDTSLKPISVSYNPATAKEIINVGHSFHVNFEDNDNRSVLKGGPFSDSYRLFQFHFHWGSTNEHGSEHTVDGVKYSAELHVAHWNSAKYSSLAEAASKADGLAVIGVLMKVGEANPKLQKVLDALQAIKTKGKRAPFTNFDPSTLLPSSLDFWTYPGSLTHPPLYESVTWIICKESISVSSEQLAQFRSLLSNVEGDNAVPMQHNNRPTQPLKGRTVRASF

| SMILES | Ki [nM] |
| --- | --- |
| CC(C)C(=O)Nc1ccc(C(=O)NC(=S)Nc2ccc(S(N)(=O)=O)cc2)cc1 [Compound 7e, 4-Isobutyramido-N-((4-sulfamoylphenyl)carbamothioyl)benzamide] | 333 |
| CC(C)C(=O)Nc1cccc(C(=O)NC(=S)Nc2ccc(S(N)(=O)=O)cc2)c1 [Compound 7b, 3-Isobutyramido-N-((4-sulfamoylphenyl)carbamothioyl)benzamide] | 56.3 |
| CC(=O)Nc1cccc(C(=O)NC(=S)Nc2ccc(S(N)(=O)=O)cc2)c1 [Compound 7a, 3-Acetamido-N-((4-sulfamoylphenyl)carbamothioyl)benzamide] | 58.2 |

The next lines start with the values.

| Ki [nM] | SMILES |
| --- | --- |
| > 100000 | CC(C)C(=O)Nc1ccc(C(=O)NC(=S)Nc2ccc(C(=O)O)cc2)cc1 [Compound 8e, 4-(3-(4-Isobutyramidobenzoyl)thioureido)benzoic acid] |
| 8180 | CC(=O)Nc1cccc(C(=O)NC(=S)Nc2ccc(C(=O)O)cc2)c1 [Compound 8a, 4-(3-(3-Acetamidobenzoyl)thioureido)benzoic acid] |
| > 100000 | CC(=O)Nc1ccc(C(=O)NC(=S)Nc2ccc(C(=O)O)cc2)cc1 [Compound 8d, 4-(3-(4-Acetamidobenzoyl)thioureido)benzoic acid] |
| 8500 | CCOC(=O)c1ccc(NC(=S)NC(=O)c2ccc(NC(=O)C(C)C)cc2)cc1 [Compound 9e, Ethyl 4–(3-(4-isobutyramidobenzoyl)thioureido)benzoate] |
| 422 | Cc1ccc(C(=O)Nc2ccc(C(=O)NC(=S)Nc3ccc(C(=O)O)cc3)cc2)cc1 [Compound 8f, 4-(3-(4–(4-Methylbenzamido)benzoyl)thioureido)benzoic acid] |
| > 100000 | CC(C)C(=O)Nc1cccc(C(=O)NC(=S)Nc2ccc(C(=O)O)cc2)c1 [Compound 8b, 4-(3-(3-Isobutyramidobenzoyl)thioureido)benzoic acid] |

Molecular target: hCA XII (Homo sapiens, UniProt O43570)
Experiment: Stopped flow CO2 hydrase assay, hCA XII
Conditions: not given

hCA XII, sequence (O43570 25-354): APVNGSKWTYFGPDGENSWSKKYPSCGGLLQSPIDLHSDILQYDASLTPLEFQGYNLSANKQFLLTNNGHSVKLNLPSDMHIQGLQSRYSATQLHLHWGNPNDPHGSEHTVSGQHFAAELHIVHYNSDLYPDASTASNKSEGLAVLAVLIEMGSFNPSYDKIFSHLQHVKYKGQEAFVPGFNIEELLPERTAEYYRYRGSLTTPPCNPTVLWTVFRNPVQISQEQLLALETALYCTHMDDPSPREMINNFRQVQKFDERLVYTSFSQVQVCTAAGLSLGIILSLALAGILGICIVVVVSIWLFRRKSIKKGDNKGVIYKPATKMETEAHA

| SMILES | Ki [nM] |
| --- | --- |
| CC(C)C(=O)Nc1ccc(C(=O)NC(=S)Nc2ccc(S(N)(=O)=O)cc2)cc1 [Compound 7e, 4-Isobutyramido-N-((4-sulfamoylphenyl)carbamothioyl)benzamide] | 94 |
| CC(C)C(=O)Nc1cccc(C(=O)NC(=S)Nc2ccc(S(N)(=O)=O)cc2)c1 [Compound 7b, 3-Isobutyramido-N-((4-sulfamoylphenyl)carbamothioyl)benzamide] | > 100000 |
| CC(=O)Nc1cccc(C(=O)NC(=S)Nc2ccc(S(N)(=O)=O)cc2)c1 [Compound 7a, 3-Acetamido-N-((4-sulfamoylphenyl)carbamothioyl)benzamide] | > 100000 |

Further lines, results first:

| Ki [nM] | SMILES |
| --- | --- |
| 102 | CC(C)C(=O)Nc1ccc(C(=O)NC(=S)Nc2ccc(C(=O)O)cc2)cc1 [Compound 8e, 4-(3-(4-Isobutyramidobenzoyl)thioureido)benzoic acid] |
| 17 | CC(=O)Nc1cccc(C(=O)NC(=S)Nc2ccc(C(=O)O)cc2)c1 [Compound 8a, 4-(3-(3-Acetamidobenzoyl)thioureido)benzoic acid] |
| > 100000 | CC(=O)Nc1ccc(C(=O)NC(=S)Nc2ccc(C(=O)O)cc2)cc1 [Compound 8d, 4-(3-(4-Acetamidobenzoyl)thioureido)benzoic acid] |
| 202 | CCOC(=O)c1ccc(NC(=S)NC(=O)c2ccc(NC(=O)C(C)C)cc2)cc1 [Compound 9e, Ethyl 4–(3-(4-isobutyramidobenzoyl)thioureido)benzoate] |
| 11 | Cc1ccc(C(=O)Nc2ccc(C(=O)NC(=S)Nc3ccc(C(=O)O)cc3)cc2)cc1 [Compound 8f, 4-(3-(4–(4-Methylbenzamido)benzoyl)thioureido)benzoic acid] |
| 142 | CC(C)C(=O)Nc1cccc(C(=O)NC(=S)Nc2ccc(C(=O)O)cc2)c1 [Compound 8b, 4-(3-(3-Isobutyramidobenzoyl)thioureido)benzoic acid] |

Same assay, conditions: inhibition of hCA XII over hCA I, calculated from Ki

| Selectivity index I/XII | SMILES |
| --- | --- |
| 481 | CC(=O)Nc1cccc(C(=O)NC(=S)Nc2ccc(C(=O)O)cc2)c1 [Compound 8a, 4-(3-(3-Acetamidobenzoyl)thioureido)benzoic acid] |
| 38 | Cc1ccc(C(=O)Nc2ccc(C(=O)NC(=S)Nc3ccc(C(=O)O)cc3)cc2)cc1 [Compound 8f, 4-(3-(4–(4-Methylbenzamido)benzoyl)thioureido)benzoic acid] |

Same assay, conditions: inhibition of hCA XII over hCA II, calculated from Ki

| Selectivity index II/XII | SMILES |
| --- | --- |
| 318 | CC(=O)Nc1cccc(C(=O)NC(=S)Nc2ccc(C(=O)O)cc2)c1 [Compound 8a, 4-(3-(3-Acetamidobenzoyl)thioureido)benzoic acid] |
| >9091 | Cc1ccc(C(=O)Nc2ccc(C(=O)NC(=S)Nc3ccc(C(=O)O)cc3)cc2)cc1 [Compound 8f, 4-(3-(4–(4-Methylbenzamido)benzoyl)thioureido)benzoic acid] |
